Laboratory results from patent US9006226B2, “Dihydropteridinones I” (Boehringer Ingelheim International GmbH, priority 2012, dated 2015).

Tested on: Aβ42
Assay: Aβ42 vs. Aβ total production in H4 neuroglioma cells stably expressing human APP695 (Meso Scale Discovery electrochemiluminescence assay)
Type: cell-based
Details: the higher the ratio, the more specific the inhibition of Aβ42
Description: Cells were plated out to near confluency. The compounds to be tested were received as 10 mM stocks in 100% DMSO. A dilution series was initially generated in 100% DMSO and then diluted 200-fold in cell culture media such that the tested concentration range was 30 μM to 0.1 nM and the final DMSO concentration was 0.5%. The diluted compounds were incubated with the cells for 22 hours in an incubator at 37° C. and 5% CO2. Aβ42 as well as Aβ total levels were then measured post-incubation from the supernatant of the cells. Aβ42 levels were determined using a specific electrochemiluminescence assay provided by Meso Scale Discovery (Catalog #L21CA-1) according to the manufacturer's protocol. Aβ total levels were likewise determined using a specific electrochemiluminescence assay provided by Meso Scale Discovery (Catalog #L21ZA-1) according to the manufacturer's protocol.
In order to absolutely define the described compounds as modulators of γ-Secretase as opposed to simply inhibitors of γ-Secretase, measurements of not only Aβ42 but also Aβ total are performed.

Structure (SMILES)	Ratio Aβ(total)/Aβ42 (Aβ total IC50/Aβ42 IC50)
CCc1nc(Nc2ccc(-n3cnc(C)c3)c(C#N)c2)nc2c1N(C)C(=O)[C@@H]1C[C@@H](OC)CN21 [Example 15]	36
CCN1C(=O)C2CCCCCN2c2nc(Nc3ccc(-c4cnc(C)s4)c(OC)c3)ncc21 (stereo not shown) [Example 5-5]	13
CCc1nc(Nc2ccc(-n3cnc(C)c3)c(C#N)c2)nc2c1NC(=O)[C@@H]1C[C@@H](OC)CN21 [Example 16]	33
CCc1nc(Nc2ccc(-n3cnc(C)c3)c(OC)c2)nc2c1NC(=O)[C@@H]1C[C@@H](OC)CN21 [Example 17]	68
COc1cc(Nc2nc(SC)c3c(n2)N2CCCCC2C(=O)N3C)ccc1-n1cnc(C)c1 (stereo not shown) [Example 13]	14
COc1cc(Nc2nc(C(C)C)c3c(n2)N2CCCC2C(=O)N3C)ccc1-n1cnc(C)c1 (stereo not shown) [Example 32]	66
CN1C(=O)C2CCCN2c2nc(Nc3ccc(-c4cnn(C)c4)nc3)ncc21 (stereo not shown) [Example 12-2]	>5
CCN1C(=O)C2CCCCCN2c2nc(Nc3ccc(-n4cnc(C)c4)cc3)ncc21 (stereo not shown) [Example 5-6]	43
CCc1nc(Nc2ccc(-n3cnc(C)c3)c(OC)c2)nc2c1N(C)C(=O)C1COCCN21 (stereo not shown) [Example 29]	76
COc1cc(Nc2ncc3c(n2)N2CCCOCC2C(=O)N3)ccc1-n1cnc(C)c1 (stereo not shown) [Example 30]	96
CCc1nc(Nc2ccc(-n3cnc(C)c3)c(OC)c2)nc2c1N(C)C(=O)C1CCCCN21 (stereo not shown) [Example 36]	86
CCc1nc(Nc2ccc(-n3cnc(C)c3)c(OC)c2)nc2c1N(C)C(=O)[C@@H]1C[C@@H](OC)CN21 [Example 14]	67
CCc1nc(Nc2ccc(-n3cnc(C)c3)c(OC)c2)nc2c1NC(=O)[C@H]1[C@@H](c3ccc(F)cc3)CCN21 (racemic) [Example 22]	71
CC(C)Cc1nc(Nc2ccc(-c3cnn(C)c3)cc2)nc2c1N(C)C(=O)C1CCCN21 (stereo not shown) [Example 34]	30
CCc1nc(Nc2ccc(-n3cnc(C)c3)c(OC)c2)nc2c1NC(=O)C1COCCN21 (stereo not shown) [Example 28]	29
CCc1nc(Nc2ccc(-c3cnc(C)o3)c(OC)c2)nc2c1NC(=O)[C@@H]1C[C@@H](OC)CN21 [Example 19]	82
COc1cc(Nc2ncc3c(n2)N2CCCOC2(C)C(=O)N3C)ccc1-n1cnc(C)c1 (stereo not shown) [Example 31]	55
CCN1C(=O)C2CCCCCN2c2nc(Nc3ccc(-n4ccnc4)c(OC)c3)ncc21 (stereo not shown) [Example 5-2]	64
CCc1nc(Nc2ccc(-c3cnc(C)o3)nc2)nc2c1N(C)C(=O)C1CCCN21 (stereo not shown) [Example 9]	>24

Structure (SMILES)	Ratio Aβ(total)/Aβ42 (Aβ total IC50/Aβ42 IC50)
COc1cc(Nc2ncc3c(n2)N2CCCC2C(=O)N3C)ccc1-n1cnc(C)c1 (stereo not shown) [Example 11]	>310
Cc1cn(-c2ccc(Nc3ncc4c(n3)N3CCCC3C(=O)N4C)cc2F)cn1 (stereo not shown) [Example 12-3]	>27
Cc1cn(-c2ccc(Nc3nc(CC(C)C)c4c(n3)N3CCCC3C(=O)N4C)cc2C#N)cn1 (stereo not shown) [Example 35]	71
COc1cc(Nc2ncc3c(n2)N2CCCCCC2C(=O)N3C)ccc1-n1cnc(C)c1 (stereo not shown) [Example 2]	59
COc1cc(Nc2ncc3c(n2)N2CCCC2C(=O)N3C)ccc1-n1ncnc1C (stereo not shown) [Example 12-4]	>39
COc1cc(Nc2nc(C(C)C)c3c(n2)N2CCN(C(=O)OC(C)(C)C)CC2C(=O)N3C)ccc1-n1cnc(C)c1 (stereo not shown) [Example 37]	12
CCN1C(=O)C2CCCCCN2c2nc(Nc3ccc(-n4cnc(C)c4)cc3OC)ncc21 (stereo not shown) [Example 5-7]	3
CCc1nc(Nc2ccc(-n3cnc(C)c3)c(OC)c2)nc2c1NC(=O)[C@@]1(C)[C@@H](OC)CN21 (racemic) [Example 27]	70
COc1cc(Nc2ncc3c(n2)N2CCCC2C(=O)N3C)ccc1-n1cnc(C)n1 (stereo not shown) [Example 12-1]	>10
CCCN1C(=O)C2CCCCCN2c2nc(Nc3ccc(-n4cnc(C)c4)c(OC)c3)ncc21 (stereo not shown) [Example 4]	44
CCc1nc(Nc2ccc(-n3cnc(C)c3)c(OC)c2)nc2c1N(C)C(=O)[C@H]1[C@H](c3ccc(F)cc3)CCN21 (racemic) [Example 23]	90
CCc1nc(Nc2ccc(-n3cnc(C)c3)c(OC)c2)nc2c1NC(=O)C1CCCN21 (stereo not shown) [Example 7]	98
CCc1nc(Nc2ccc(-n3cnc(C)c3)c(OC)c2)nc2c1N(C)C(=O)C1CCCN21 (stereo not shown) [Example 6]	96
CCN1C(=O)C2CCCCCN2c2nc(Nc3ccc(-c4ccnc(C)c4)cc3)ncc21 (stereo not shown) [Example 3]	17
CCN1C(=O)C2CCCCCN2c2nc(Nc3cnc(-n4cnc(C)c4)c(OC)c3)ncc21 (stereo not shown) [Example 5-4]	>175
CCc1nc(Nc2ccc(-n3cnc(C)c3)c(OC)c2)nc2c1N(C)C(=O)[C@]1(C)C[C@@H](OC)CN21 [Example 25]	73
CCCN1C(=O)C2CCCCCN2c2nc(Nc3ccc(-c4ccnc(C)c4)cc3)ncc21 (stereo not shown) [Example 5]	14
CCc1nc(Nc2ccc(-c3ccnc(C)c3)cc2)nc2c1N(C)C(=O)C1CCCN21 (stereo not shown) [Example 8]	62
